These results are taken from patent publication US5998596A, “Inhibition of protein kinase activity by aptameric action of oligonucleotides” (The United States of America as represented by the …).

Series [1] deals with p210^bcr-abl kinase in K562 cells. In words: Immunoprecipitation kinase assay of p210bcr-abl from ODN treated K562 cells. The class given is cell-based, human. The settings on record: K562 cells treated with T-21 overnight, washed, calculated from FIG. 9A, read-out: IC50 of apparent reduction of p210^bcr-abl kinase activity. On the procedure:
(§1) Immunoprecipitation kinase assays of p210^bcr-abl p145^abl were performed as described, with modifications (15). Briefly, for p210^bcr-abl, 1 μg of anti-bcr antibody (clone 7C6, Oncogene Science, Uniondale, N.Y.) was added to lysates prepared from 0.5-1×10^6 K562 cells. For p145^abl, 1 μg of anti-c-abl antibody (clone 24-21), which binds to the C-terminal domain of p145^abl, was added to lysates prepared from 5×10^6 PC3M cells. After incubating 1 hour at 4° C., complexes were precipitated by incubating with protein A-Sepharose coated with rabbit anti-mouse immunoglobulin (Cappel Research Products, Durham, N.C.) for 30 minutes. The complexes were then washed as follows: ABL lysis buffer×2, PBS×1, and ABL assay buffer×1 (24 mM imidazole, pH 7.2, 1 mg/ml bovine serum albumin, and 10 mM MnCl). For p145^abl assays ABL assay buffer contained 20 mM MnCl. To access the activity of p210^bcr-abl on substrate phosphorylation, acid inactivated enolase (Sigma Chemical Co., St. Louis, Mo.) was added as described (15).
(§2) ODNs were added to kinase reaction buffers not more than 5 minutes prior to the addition of ATP. Reactions were initiated by the addition of [γ^-32 P] ATP (3000 Ci/mmole; Amersham Corp., Arlington Heights, Ill.) and quenched by the addition of 5× gel loading buffer and heating to 95° C. Kinase reactions were run for 1-10 minutes at room temperature, except for EGFR, p145^abl, and MAP kinase, which were run at 30° C. The products were then electrophoresed on SDS-polyacrylamide gels: 7% for p210^bcr-abl, EGFR, and PDGFR, 8% for p145^abl, 10% for src, lck, and cdc-2 kinase, and 12% for MAP kinase. Gels were dried and reaction products were visualized by direct autoradiography at -70° C. with Kodak X-OMAT AR film. To determine the inhibitory concentration 50, i.e., the concentration required to inhibit enzyme activity by 50% (IC50) and Ki values, gel slices containing the band of interest were excised and analyzed by Cerenkov counting.
The effects of ODN1 on a cellular system were assessed. […] After 3 days, cells were washed and p210^bcr-abl kinase activity was measured. […] Neither cellular p210^bcr-abl protein content nor cell growth was affected by ODN treatment (data not shown).

Another series relates to p210^bcr-abl kinase. In words: Immunoprecipitation kinase assay of p210bcr-abl (autophosphorylation), ODN added to kinase reaction. The class given is biochemical, human. The settings on record: ODN at 1 μM added to the immunoprecipitated enzyme. As to the method:
The p210^bcr-abl kinase, src kinase and cdc-2 kinase were immunoprecipitated from K562 cells. The p145^abl kinase was immunoprecipitated from PC3M cells, PDGF receptor kinase from 3T3 cells, and EGF receptor kinase from A431 cells. MAP kinase was utilized as a pure protein and lck kinase was immunoprecipitated from peripheral blood lymphocytes of a normal volunteer.
(§3) Cells were washed in phosphate buffered saline (PBS) and 0.5-5×10^6 cells were solubilized in 1 ml of the specified cell lysis buffers. Unless otherwise stated, all cell lysis buffers contained the following protease inhibitors: 20 μg/ml leupeptin, 1 μg/ml aprotinin, and 1 mM phenylmethylsulfonylfluroide. For p210^bcr-abl and […] immunoprecipitation, cells were lysed with ABL lysis buffer (25 mM imidazole, pH 7.2, 0.5% NP40, 50 mM NaCl, 1 mM Na3 VO4) and lysates were clarified at 14,000 g. 4° C. for 30 minutes. Cell lysis for all other proteins was performed according to the references describing the various immunoprecipitation kinase assays.
as §1, §2

The subject of a further series is p210^bcr-abl. In words: Inhibition of p210bcr-abl immunoprecipitation by BCR directed antibody clone 7C6. Conditions: 10 μM ODN added to K562 cell lysate, antibody clone 7C6, Western for phosphotyrosine. The class given is binding, human. As to the method: FIG. 9C. Inhibition of p210^bcr-abl immunoprecipitation by T-21. […] T-21 was added to the lysate from 1×10^6 K562 cells (lane 2) and p210^bcr-abl immunoprecipitated with the BCR directed antibody, clone 7C6; no ODN was added to the lysate immunoprecipitated in lane 1. After extensive washing, the immunoprecipitates were separated on a 7% SDS polyacrylamide gel, transferred to nitrocellulose, and probed with an anti-phosphotyrosine antibody. Data are representative of at least two separate experiments.
In experiments designed to test the specificity of BCR-AS, an ODN composed solely of thymidylic acid residues (T-21) i.e., 5' […] 3' (SEQ ID NO.: 12) was capable of interfering with p210^bcr-abl immunoprecipitation. […] From the data in FIG. 9A, one can calculate an IC50 of less than 1 μM. […] This apparent discrepancy appears to be due to the ability of T-21 to inhibit precipitation of p210^bcr-abl by the BCR-directed antibody, clone 7C6. […] Inhibition of p210^bcr-abl immunoprecipitation was not seen with the other ODNs used in this study (data now shown).

Series [2] has as its target p145 ABL tyrosine kinase (c-Abl) (UniProt P00519 P00519:1-1130). In words: inhibition; 20 mM Mn, 30 C. The settings on record: tags: immunoprecipitated from PC3M cells with anti-c-abl clone 24-21. As to the method:
as §3, with “0.5–5×10^6” for “0.5-5×10^6”, “µg/ml” for “μg/ml”, “Na_3VO_4)” for “Na3 VO4)”
Immunoprecipitation kinase assays of p210^bcr-abl p145^abl were performed as described, with modifications (15). Briefly, for p210^bcr-abl, 1 µg of anti-bcr antibody (clone 7C6, Oncogene Science, Uniondale, N.Y.) was added to lysates prepared from 0.5–1×10^6 K562 cells. For p145^abl, 1 µg of anti-c-abl antibody (clone 24-21), which binds to the C-terminal domain of p145^abl, was added to lysates prepared from 5×10^6 PC3M cells. After incubating 1 hour at 4° C., complexes were precipitated by incubating with protein A-Sepharose coated with rabbit anti-mouse immunoglobulin (Cappel Research Products, Durham, N.C.) for 30 minutes. […]

p145 ABL tyrosine kinase (c-Abl), sequence (P00519 whole entry, one chain of several): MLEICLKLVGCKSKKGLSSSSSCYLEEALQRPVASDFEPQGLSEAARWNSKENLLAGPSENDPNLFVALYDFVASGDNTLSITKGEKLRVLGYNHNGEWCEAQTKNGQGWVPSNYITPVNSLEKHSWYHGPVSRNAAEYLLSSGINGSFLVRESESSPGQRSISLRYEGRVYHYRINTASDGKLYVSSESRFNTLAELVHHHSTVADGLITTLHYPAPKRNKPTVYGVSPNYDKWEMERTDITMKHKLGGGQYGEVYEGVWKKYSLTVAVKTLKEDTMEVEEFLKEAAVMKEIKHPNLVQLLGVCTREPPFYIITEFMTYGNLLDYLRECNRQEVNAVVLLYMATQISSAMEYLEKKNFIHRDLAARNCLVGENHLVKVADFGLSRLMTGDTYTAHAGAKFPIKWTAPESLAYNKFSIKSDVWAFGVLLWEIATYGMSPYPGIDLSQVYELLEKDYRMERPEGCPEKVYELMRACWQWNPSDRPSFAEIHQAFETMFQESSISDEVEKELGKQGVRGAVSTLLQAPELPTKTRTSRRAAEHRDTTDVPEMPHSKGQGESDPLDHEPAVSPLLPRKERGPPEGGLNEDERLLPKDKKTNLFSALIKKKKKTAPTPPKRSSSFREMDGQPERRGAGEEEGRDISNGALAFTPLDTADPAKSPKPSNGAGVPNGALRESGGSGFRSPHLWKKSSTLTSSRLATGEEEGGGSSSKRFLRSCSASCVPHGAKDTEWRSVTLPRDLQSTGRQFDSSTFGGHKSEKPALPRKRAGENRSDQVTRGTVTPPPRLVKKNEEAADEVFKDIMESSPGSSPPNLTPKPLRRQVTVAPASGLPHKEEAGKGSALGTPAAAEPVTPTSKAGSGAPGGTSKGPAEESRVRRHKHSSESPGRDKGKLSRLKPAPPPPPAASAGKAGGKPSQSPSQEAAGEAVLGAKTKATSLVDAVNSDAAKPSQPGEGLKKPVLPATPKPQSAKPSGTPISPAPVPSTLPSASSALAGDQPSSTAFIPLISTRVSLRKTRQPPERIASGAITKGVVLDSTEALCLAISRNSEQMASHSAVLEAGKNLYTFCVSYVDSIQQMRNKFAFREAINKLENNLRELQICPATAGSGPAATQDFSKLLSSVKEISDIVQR

The term IC50 denotes the concentration needed to halve the response being measured. “5' TTTTTTTTTTTTTTTTTTTTT 3' (chemistry not given here) [T-21, a 21mer composed solely of thymidylic acid residues]”: the IC50 in series [1] is less than 1000 nM. Besides, in the series on p210^bcr-abl kinase, the “inhibition of p210^bcr-abl kinase activity in vitro (in words)” value was “only moderate inhibition”. Moreover, in the series on p210^bcr-abl, the “inhibition of p210^bcr-abl immunoprecipitation” value is “nearly total inhibition”.
GTCCACCATGGCGCGGCCGGC (ssDNA, PS, two linkages at each of 5' and 3' ends, rest phosphodiester) [ODN1 (BCR-AS), phosphorothioate capped] showed a concentration for half-maximal inhibition (IC50) in series [2] of 620 nM.
